Laboratory results published in patent US8912146B2, “Derivatives of APF and methods of use” (University of Maryland, Baltimore, priority 2008, dated 2014).
“Also recorded” adds a separate entry of the source.

Experiments:
Format in all cases: cell-based, human
[1] = test system: bladder epithelial cells from IC/PBS patients; assay: Stimulation of IC/PBS cell proliferation (3H-thymidine incorporation)
Method: (§1) IC/PBS cells were incubated with varying concentrations of two derivatives shown to inhibit APF activity in normal bladder cells—GalGalNAc-TV(D-pipecolic acid) AAVVVA (SEQ ID NO:14) and GalGalNAc-TV (D-proline)AAVVVA (SEQ ID NO:27). Cell proliferation was determined by ^3H-thymidine incorporation; gene expression by quantitative RT-PCR; specific protein expression by Western blot analysis; tight junction formation by confocal immunofluorescence microscopy; and paracellular permeability by ^14C-mannitol and ^3H-inulin flux between confluent cells on Transwell plates. Significance of the difference in mean values between groups was determined by an analysis of variance for each assay.
as §1, with “cells -GalGalNAc-TV-(D-pipecolic acid)-AAVVVA” for “cells—GalGalNAc-TV(D-pipecolic acid) AAVVVA”, “NO:7)” for “NO:14)”, “GalGalNAc-TV-(D-proline)-AAVVVA” for “GalGalNAc-TV (D-proline)AAVVVA”, “RT-PCR;” for “RT-PCR; specific protein expression by Western blot analysis;”
IC/PBS cells produce APF and as a result have a profound decrease in cell proliferation. […]
Cystoscopy was performed under general anesthesia, and 4-mm^2 pieces of transitional epithelium with submucosal bladder tissue were obtained from IC/PBS patients and controls for the growth of primary bladder epithelial cells, as previously described (Keay et al., 2000; Keay et al., 2001; Keay et al., 2004; Keay et al., 2003). […]
Cell proliferation was measured by ^3H-thymidine incorporation into explanted normal human bladder epithelial cells, as previously described (Keay et al., 2000; Keay et al., 2001; Keay et al., 2004; Keay et al., 2003; Saitoh et al., 2001). […]

IC/PBS cell monolayers = assay: Paracellular permeability (14C-mannitol and 3H-inulin flux, Transwell) of IC/PBS cell monolayers; details: 16 or 30 days treatment
Method: Flux assays were performed using 12-mm Transwell culture plates (Corning Incorporated, Corning, N.Y.), as previously described (Keay et al., 2000). Cells were plated at 4×10^5 cells/cm^2 on the insert and grown in DMEM-F12 medium containing 10% heat-inactivated FBS, 1% antibiotic solution, 1% L-glutamine, 0.25 units/ml insulin (all from Sigma, St. Louis, Mo.), and 5 ng/ml hEGF (R & D Systems, Minneapolis, Minn.) to establish tight monolayers. On day 2, the medium was changed to MEM (GIBCO/Invitrogen) containing 1% antibiotic/antimycotic solution and 1% L-glutamine (Sigma).
Two different membrane impermeable molecules, [14C]-mannitol (molecular weight: 184 Daltons) and [^3H]-inulin (molecular weight: 5,200 Daltons), served as paracellular tracers. […] Flux assays were performed at 37° C.; basal medium was collected at 0.5-6 hrs after addition of [^14C]-mannitol or [3H]-inulin, and the amount of radioactivity determined using a Beckman LS 5000 scintillation counter. Results were expressed as percentage of total counts for each tracer.
For the permeability assay, the percentage of total counts in the basal medium was determined in four experiments (using different IC/PBS cell donors), and expressed as mean±standard deviation. […]

[2] = test system: tight junction proteins in IC/PBS cells; assay: Immunofluorescence confocal microscopy of tight junction proteins in IC/PBS cells; details: IC/PBS cell explants, 9 days
Method: For immunofluorescence, cells were fixed using ethanol/acetone (1:1) for 15 minutes at room temperature, washed 3 times with PBS and incubated with fluorescein isothiocyanate (FITC) labeled mouse monoclonal anti-ZO-1 (5 μg/ml); or unlabeled mouse monoclonal anti-occludin (5 μg/ml) or anti-claudin 4 (3 μg/ml); or unlabeled rabbit polyclonal anti-claudin 1 (3 μg/ml), anti-claudin 8 (8 μg/ml), or anti-claudin 12 (5 μg/ml from Zymed, South San Francisco, Calif.) diluted in PBS for 2 hours at 37 C. Cells incubated with unlabeled mouse monoclonal primary antibodies were then washed 3 times with PBS and further incubated with FITC-labeled secondary goat anti-mouse IgG antibody (Zymed) diluted in PBS, while cells incubated with unlabeled rabbit polyclonal primary antibodies were washed and further incubated for 2 hours at 37 C with goat anti-rabbit IgG (Zymed) diluted in PBS. Following an additional 5 washes with PBS, the cells were examined using an LSM510 confocal laser scanning microscope (Carl Zeiss, Oberkochen, Germany). Negative controls for the method included cells incubated without primary and secondary antibodies as well as cells incubated with secondary antibody alone.

What does the source list for `CC(=O)NC1C(O[C@@H]2OC(CO)[C@H](O)C(O)C2O)[C@@H](O)C(CO)O[C@@H]1OC(C)[C@H](N)C(=O)NC(C(=O)N1CCCC1C(=O)NC(C)C(=O)N[C@@H](C)C(=O)NC(C(=O)N[C@H](C(=O)NC(C(=O)N[C@@H](C)C(=O)O)C(C)C)C(C)C)C(C)C)C(C)C` (stereo in doubt) [Derivative 8, GalGalNAc-TV(D-proline)AAVVVA]?
stimulation of IC/PBS cell proliferation ([1]; 1 nM twice weekly, by Day 16 (FIG. 55)): significantly (p<0.05) stimulated IC/PBS cell proliferation; stimulation of IC cell proliferation ([1]; 0.25 μM of each agent, 9, 16, 23, 30 day treatment (FIG. 41)): Optimal stimulation of IC cell proliferation; IC cell proliferation vs untreated controls ([1]; 16 and 30 days of treatment (FIG. 48)): significantly stimulated; paracellular permeability of IC/PBS cells (14C-mannitol, 3H-inulin) (IC/PBS cell monolayers): significantly decrease permeability; paracellular permeability of IC/PBS cells (14C-mannitol, 3H-inulin) (IC/PBS cell monolayers; listed as D-proline APF): normalized; also recorded: significantly decreased paracellular permeability; expression of tight junction proteins by immunofluorescence confocal microscopy [2]: increased
